Measured values taken from US20110152194A1, “CHIMERIC NATRIURETIC POLYPEPTIDES AND METHODS FOR INHIBITING CARDIAC REMODELING” (MAYO FOUNDATION FOR MEDICAL EDUCATION AND RESEARCH, priority 2008, published 2011).
Values joined by “and” are separate entries in the source; they are usually repeats but may differ in a detail not shown here. Equal entries are not always repeated. Where two headings read alike, the source gives them in different places.

Key:
male mongrel dogs = experiment: In vivo actions of CD-NP, CNP and CNP-C continuous i.v. infusion in anesthetized dogs; parameters: species or system dog; conditions: for ANG II, angiotensin II / Aldosterone / CO, cardiac output / DFRNa, distal fractional reabsorption of Na+ / GFR, glomerular filtration rate / MAP, mean arterial pressure / PAP, pulmonary arterial pressure / PCWP, pulmonary capillary wedge pressure / PFRNa, proximal fractional reabsorption of Na+ / PRA, plasma renin activity / PVR, pulmonary vascular resistance / RAP, right atrial pressure / RBF / RVR, renal vascular resistance / SVR, systemic vascular resistance: dogs, 75 min i.v. infusion of CD-NP 50 ng/kg/min or equimolar CNP
[1] = in vivo; cited from earlier work
normal anesthetized dogs = conditions: dog, in vivo

Q: For GLSKGCFGLKLDRIGSMSGLGCGKSLG [CNP-C], which “ANG II” value (male mongrel dogs; dog, in vivo, iv) is on record?
A: Its value is “did not result in any significant changes”.

Q: What about the GFR (male mongrel dogs; dog, in vivo, iv) of the same substance?
A: Its GFR is “did not result in any significant changes”.

Q: What about the PRA (male mongrel dogs; dog, in vivo, iv) of the same substance?
A: The PRA was “did not result in any significant changes”.

Q: What about the “Pulmonary capillary wedge pressure” value (male mongrel dogs; dog, in vivo, iv) of the same substance?
A: The value was 4.3±0.8 mmHg and 3.4±0.8 mmHg.

Q: What about the diuresis (male mongrel dogs; dog, in vivo, iv) of the same substance?
A: Its diuresis is “did not result in any significant changes”.

Q: What about the mean arterial pressure (male mongrel dogs; dog, in vivo, iv) of the same substance?
A: The mean arterial pressure was 132±6 mmHg and 128±5 mmHg.

Q: What about the natriuresis (male mongrel dogs; dog, in vivo, iv) of the same substance?
A: The natriuresis was “did not result in any significant changes”.

Q: And the “plasma cGMP” value (male mongrel dogs; dog, in vivo, iv)?
A: Its value is “did not result in any significant changes”.

Q: What about the “urinary cGMP excretion” value (male mongrel dogs; dog, in vivo, iv) of the same substance?
A: Its value is “did not result in any significant changes”.

Q: Which half-life [1] does the source give for GLSKGCFGLKLDRIGSMSGLGC [CNP] here?
A: Its half-life is “about a minute and a half”.

Q: What about the “ANG II, angiotensin II” value (male mongrel dogs; 30 min I) of the same substance?
A: The value was 7.5 ± 1.4 pg/mL.

Q: What about the Aldosterone (male mongrel dogs; 30 min I) of the same substance?
A: Its Aldosterone is 21.1 ± 3.8 ng/dL.

Q: And the “CO, cardiac output” value (male mongrel dogs; 30 min I)?
A: The value was 3.3 ± 0.3 L/min.

Q: What about the “DFRNa, distal fractional reabsorption of Na+” value (male mongrel dogs; 30 min I) of the same substance?
A: The value was 97 ± 0.4%.

Q: What about the “GFR, glomerular filtration rate” value (male mongrel dogs; 30 min I) of the same substance?
A: Its value is 52.7 ± 6.7 mL/min.

Q: And the “MAP, mean arterial pressure” value (male mongrel dogs; 30 min I)?
A: Its value is 127 ± 4 mmHg.

Q: And the “PAP, pulmonary arterial pressure” value (male mongrel dogs; 30 min I)?
A: The value was 12.8 ± 0.8 mmHg.

Q: And the “PCWP, pulmonary capillary wedge pressure” value (male mongrel dogs; 30 min I)?
A: Its value is 4.6 ± 0.5 mmHg.

Q: What about the “PFRNa, proximal fractional reabsorption of Na+” value (male mongrel dogs; 30 min I) of the same substance?
A: The value was 73 ± 2%.

Q: And the “PRA, plasma renin activity” value (male mongrel dogs; 30 min I)?
A: The value was 1.9 ± 0.6 ng/mL/h.

Q: What about the “PVR, pulmonary vascular resistance” value (male mongrel dogs; 30 min I) of the same substance?
A: Its value is 1.9 ± 0.2 mmHgL^−1 · min.

Q: And the “RAP, right atrial pressure” value (male mongrel dogs; 30 min I)?
A: Its value is 2.5 ± 0.3 mmHg.

Q: And the RBF (male mongrel dogs; 30 min I)?
A: The RBF was 294.2 ± 30.8 mL/min.

Q: And the “RVR, renal vascular resistance” value (male mongrel dogs; 30 min I)?
A: The value was 0.47 ± 0.06 × 10^−3 mmHg · L^−1 · min.

Q: What about the “SVR, systemic vascular resistance” value (male mongrel dogs; 30 min I) of the same substance?
A: Its value is 39.9 ± 2.7 mmHgL^−1 · min.

Q: And the “ANG II, angiotensin II” value (male mongrel dogs; 60 min I)?
A: Its value is 10.4 ± 2.8 pg/mL.

Q: What about the Aldosterone (male mongrel dogs; 60 min I) of the same substance?
A: Its Aldosterone is 21.4 ± 3.7 ng/dL.

Q: And the “CO, cardiac output” value (male mongrel dogs; 60 min I)?
A: The value was 2.8 ± 0.3 L/min.

Q: And the “DFRNa, distal fractional reabsorption of Na+” value (male mongrel dogs; 60 min I)?
A: Its value is 97 ± 0.9%.

Q: And the “GFR, glomerular filtration rate” value (male mongrel dogs; 60 min I)?
A: Its value is 49.5 ± 4.2 mL/min.

Q: And the “MAP, mean arterial pressure” value (male mongrel dogs; 60 min I)?
A: Its value is 128 ± 4 mmHg.

Q: What about the “PAP, pulmonary arterial pressure” value (male mongrel dogs; 60 min I) of the same substance?
A: Its value is 13.2 ± 0.7 mmHg.

Q: What about the “PCWP, pulmonary capillary wedge pressure” value (male mongrel dogs; 60 min I) of the same substance?
A: Its value is 5.6 ± 0.7 mmHg.

Q: And the “PFRNa, proximal fractional reabsorption of Na+” value (male mongrel dogs; 60 min I)?
A: Its value is 72 ± 1%.

Q: What about the “PRA, plasma renin activity” value (male mongrel dogs; 60 min I) of the same substance?
A: The value was 2.5 ± 0.7 ng/mL/h.

Q: What about the “PVR, pulmonary vascular resistance” value (male mongrel dogs; 60 min I) of the same substance?
A: Its value is 2.1 ± 0.3 mmHgL^−1 · min.

Q: What about the “RAP, right atrial pressure” value (male mongrel dogs; 60 min I) of the same substance?
A: Its value is 2.9 ± 0.3 mmHg.

Q: And the RBF (male mongrel dogs; 60 min I)?
A: Its RBF is 277.8 ± 29.2 mL/min.

Q: What about the “RVR, renal vascular resistance” value (male mongrel dogs; 60 min I) of the same substance?
A: The value was 0.49 ± 0.06 × 10^−3 mmHg · L^−1 · min.

Q: What about the “SVR, systemic vascular resistance” value (male mongrel dogs; 60 min I) of the same substance?
A: The value was 46.9 ± 2.7^† mmHgL^−1 · min.

Q: What about the “ANG II, angiotensin II” value (male mongrel dogs; Post-I) of the same substance?
A: The value was 14.4 ± 5.0 pg/mL.

Q: What about the Aldosterone (male mongrel dogs; Post-I) of the same substance?
A: The Aldosterone was 22.0 ± 4.2 ng/dL.

Q: And the “CO, cardiac output” value (male mongrel dogs; Post-I)?
A: Its value is 2.6 ± 0.1 L/min.

Q: What about the “DFRNa, distal fractional reabsorption of Na+” value (male mongrel dogs; Post-I) of the same substance?
A: Its value is 97 ± 0.8%.

Q: What about the “GFR, glomerular filtration rate” value (male mongrel dogs; Post-I) of the same substance?
A: Its value is 48.8 ± 5.6 mL/min.

Q: What about the “MAP, mean arterial pressure” value (male mongrel dogs; Post-I) of the same substance?
A: The value was 128 ± 4 mmHg.

Q: What about the “PAP, pulmonary arterial pressure” value (male mongrel dogs; Post-I) of the same substance?
A: The value was 13.9 ± 0.7 mmHg.

Q: And the “PCWP, pulmonary capillary wedge pressure” value (male mongrel dogs; Post-I)?
A: Its value is 6.4 ± 0.8 mmHg.

Q: What about the “PFRNa, proximal fractional reabsorption of Na+” value (male mongrel dogs; Post-I) of the same substance?
A: The value was 73 ± 2%.

Q: And the “PRA, plasma renin activity” value (male mongrel dogs; Post-I)?
A: The value was 3.2 ± 1.0 ng/mL/h.

Q: What about the “PVR, pulmonary vascular resistance” value (male mongrel dogs; Post-I) of the same substance?
A: The value was 2.2 ± 0.4 mmHgL^−1 · min.

Q: What about the “RAP, right atrial pressure” value (male mongrel dogs; Post-I) of the same substance?
A: Its value is 3.5 ± 0.5 mmHg.

Q: What about the RBF (male mongrel dogs; Post-I) of the same substance?
A: The RBF was 272.0 ± 24.5 mL/min.

Q: What about the “RVR, renal vascular resistance” value (male mongrel dogs; Post-I) of the same substance?
A: Its value is 0.49 ± 0.06 × 10^−3 mmHg · L^−1 · min.

Q: And the “SVR, systemic vascular resistance” value (male mongrel dogs; Post-I)?
A: Its value is 48.7 ± 2.5^† mmHgL^−1 · min.

Q: What about the “ANG II, angiotensin II” value (male mongrel dogs; Pre-I (pre-infusion)) of the same substance?
A: The value was 11.7 ± 4.7 pg/mL.

Q: And the Aldosterone (male mongrel dogs; Pre-I (pre-infusion))?
A: The Aldosterone was 15.1 ± 4.2 ng/dL.

Q: And the “CO, cardiac output” value (male mongrel dogs; Pre-I (pre-infusion))?
A: The value was 3.8 ± 0.3 L/min.

Q: What about the “DFRNa, distal fractional reabsorption of Na+” value (male mongrel dogs; Pre-I (pre-infusion)) of the same substance?
A: Its value is 98 ± 0.6%.

Q: What about the “GFR, glomerular filtration rate” value (male mongrel dogs; Pre-I (pre-infusion)) of the same substance?
A: Its value is 52.2 ± 5.3 mL/min.

Q: And the “MAP, mean arterial pressure” value (male mongrel dogs; Pre-I (pre-infusion))?
A: Its value is 123 ± 4 mmHg.

Q: And the “PAP, pulmonary arterial pressure” value (male mongrel dogs; Pre-I (pre-infusion))?
A: Its value is 13.1 ± 0.8 mmHg.

Q: And the “PCWP, pulmonary capillary wedge pressure” value (male mongrel dogs; Pre-I (pre-infusion))?
A: The value was 5.0 ± 0.5 mmHg.

Q: And the “PFRNa, proximal fractional reabsorption of Na+” value (male mongrel dogs; Pre-I (pre-infusion))?
A: Its value is 80 ± 3%.

Q: What about the “PRA, plasma renin activity” value (male mongrel dogs; Pre-I (pre-infusion)) of the same substance?
A: Its value is 2.9 ± 1.4 ng/mL/h.

Q: And the “PVR, pulmonary vascular resistance” value (male mongrel dogs; Pre-I (pre-infusion))?
A: Its value is 1.8 ± 0.2 mmHgL^−1 · min.

Q: What about the “RAP, right atrial pressure” value (male mongrel dogs; Pre-I (pre-infusion)) of the same substance?
A: Its value is 2.6 ± 0.3 mmHg.

Q: And the RBF (male mongrel dogs; Pre-I (pre-infusion))?
A: Its RBF is 273.4 ± 25.5 mL/min.

Q: And the “RVR, renal vascular resistance” value (male mongrel dogs; Pre-I (pre-infusion))?
A: Its value is 0.49 ± 0.07 × 10^−3 mmHg · L^−1 · min.

Q: And the “SVR, systemic vascular resistance” value (male mongrel dogs; Pre-I (pre-infusion))?
A: The value was 33.8 ± 2.9 mmHgL^−1 · min.

Q: Which GFR (normal anesthetized dogs) does the source give for B-type natriuretic peptide [BNP] here?
A: Its GFR is “lack of increase”.

Q: Which results are given for PSLRDPRPNAPSTSA [C-terminus]?
A: DFRNa, distal fractional sodium reabsorption (normal anesthetized dogs): 98.7 ± 0.3%; GFR, glomerular filtration rate (normal anesthetized dogs): 34 ± 6 mL/min; PFRNa, proximal fractional sodium reabsorption (normal anesthetized dogs): 77.9 ± 2.7%; RBF, renal blood flow (normal anesthetized dogs): 213 ± 19 mL/min; UcGMPV, urinary cGMP excretion (normal anesthetized dogs): 1674 ± 213 pmol/min; DFRNa, distal fractional sodium reabsorption (normal anesthetized dogs; iv): 97.8 ± 0.5%; GFR, glomerular filtration rate (normal anesthetized dogs; iv): 44 ± 6 mL/min; PFRNa, proximal fractional sodium reabsorption (normal anesthetized dogs; iv): 71.0 ± 2.6 %; RBF, renal blood flow (normal anesthetized dogs; iv): 198 ± 27 mL/min; UcGMPV, urinary cGMP excretion (normal anesthetized dogs; iv): 2275 ± 231 pmol/min; natriuretic and diuretic action (urinary excretion of sodium, urine flow) (normal anesthetized dogs; iv): natriuretic and diuretic
